# Measured values from patent US7292944B2, “Establishment of biological cut-off values for predicting resistance to therapy” (priority 2000, dated 2007).
# Tested on: HIV
# Experiment: Antivirogram phenotypic drug susceptibility of untreated patient samples relative to laboratory wild type standard virus
# Assay type: cell-based
# Conditions: for effect of the change in cut-off value on the decision concerning resistance of the samples: new versus old cut-off value (FIG. 4, FIG. 5)
# Text: In one embodiment, the biological cut-off values may be used in concert with direct phenotype assays, for example, Antivirogram™ (Virco, Inc.; WO 97/27480, U.S. Pat. No. 6,221,578 incorporated herein by reference). This assay is a phenotypic resistance assay that measures, in controlled laboratory conditions, the level of resistance of the HIV derived from an individual patient to each of the anti-HIV therapies currently available. The resistant ‘behavior’ of the virus may be the combined result of the effects of many different mutations and the complex interactions between them, including genetic changes that have not even been identified yet. In other words, it is a direct measure of resistance.
# The test provides a quantitative measure of viral resistance to all the available drugs. This is expressed in terms of the IC50. This is then compared to the IC50 for fully sensitive, non-mutated ‘wild-type’ virus. The resistance of the sampled virus to each therapy is then expressed in terms of a fold-change in IC50 compared to wild type. The report enables physicians to identify the therapy(s) that are no longer active and helps in the selection of the optimal combination of drugs for the individual patient.
# Drug susceptibility of approximately 1000 geographically diverse untreated patient samples was determined for all currently approved antiretrovirals using the Antivirogram™ assay. […] The fold change in sensitivity of the samples to a drug is also termed the fold resistance of the samples to the drug. The 2×SD value for each drug was used as the cut-off between sensitive (within normal susceptibile range) and resistant (above normal susceptible range). […] FIG. 1 represents an example of such an analysis for a single antiviral drug. These varied between 3-4.5 fold for the nucleosides, 6-10 fold for the NNRTIs and 2.5-4 fold for the PIs.
Compound,effect of the change in cut-off value on the decision concerning resistance of the samples,"biological cut-off value (2×SD of fold change in sensitivity / fold resistance) (approximately 1000 untreated patient samples, new cut-off between sensitive and resistant, old cut-off was 4 fold) [fold]"
Cc1cn([C@H]2C=C[C@@H](CO)O2)c(=O)[nH]c1=O [d4T],doubling of the number of resistant sample,–
CC(C)Nc1cccnc1N1CCN(C(=O)c2cc3cc(NS(C)(=O)=O)ccc3[nH]2)CC1 [delavirdine],did not actually affect the decision of many samples,10
